Values of other authors, collected in patent US11291673B2, “Topical doxycycline hydrogel with improved long-term stability” (Nanopharmaceutics, Inc., priority 2019, dated 2022).
One block for each molecule: values may come before it.

Tests used:
[1] = test system: experimental dry eye (EDE) model
mastitis = settings: homogeneous suspension applied to the udder of a cow
[2] = compared to aqueous suspensions containing amphoteric dioxytetracycline

solubility (neutral pH): less than 10 mg/ml
Molecule: C[C@H]1c2cccc(O)c2C(=O)C2=C(O)[C@]3(O)C(=O)C(C(N)=O)=C(O)[C@@H](N(C)C)[C@@H]3[C@@H](O)[C@@H]21 [Doxycycline]

aqueous solubility (pHs above 6): < 0.8 mg/mL
Molecule: C[C@H]1c2cccc(O)c2C(=O)C2=C(O)[C@]3(O)C(=O)C(C(N)=O)=C(O)[C@@H](N(C)C)[C@@H]3[C@@H](O)[C@@H]21 [Doxycycline monohydrate]

Molecule: C[C@H]1c2cccc(O)c2C(O)=C2C(=O)[C@]3(O)C(O)=C(C(N)=O)C(=O)[C@H](N(C)C)[C@@H]3[C@@H](O)[C@@H]21 [4-epidoxycycline]
anti-inflammatory and anti-proteolytic effects [1]: lack of anti-inflammatory and anti-proteolytic effects

stability of suspension [2]: superior stability
Molecule: calcium dioxytetracycline
alleviation of mastitis (mastitis): rapid and complete alleviation of mastitis

Molecule: C[C@@H]1c2cccc(O)c2C(O)=C2C(=O)[C@]3(O)C(O)=C(C(N)=O)C(=O)[C@@H](N(C)C)[C@@H]3[C@@H](O)[C@@H]21 [6-epidoxycycline]
anti-inflammatory and anti-proteolytic effects [1]: lack of anti-inflammatory and anti-proteolytic effects
